Drawing on PubChem BioAssay (NCI), this text covers GI50 and TGI for four compounds.

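Briefly, cells in 96-well plates were exposed to five compound concentrations for 48 h, and endpoints were estimated by linear interpolation. GI50 = concentration required for 50% inhibition of growth. The concentration for full growth arrest is given as TGI.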

Test systems include PC-3 prostate; DU-145 prostate; OVCAR-3 ovarian; HS 578T breast; M14 melanoma; U251 CNS; SK-MEL-5 melanoma; SF-268 CNS; RPMI-8226 leukemia; SK-MEL-2 melanoma.
Test in all cases: inhibition of tumour cell growth, NCI panel, 48 h

With `C=C1C(=O)O[C@H]2[C@H]1CC/C(COC(=O)NCc1ccc(Cn3c(=O)sn(CCCl)c3=O)cc1)=C\CC[C@@]1(C)O[C@@H]21`, the GI50 in the assay on PC-3 prostate was 8.09 µM; with DU-145 prostate it was 1.72 µM; in the assay on OVCAR-3 ovarian, 1.53 µM; in the assay with HS 578T breast, 12.1 µM; in the assay on M14 melanoma, 1.82 µM; with U251 CNS it was 6.79 µM. Also, the GI50 in the assay with SK-MEL-5 melanoma was 1.7 µM; in the assay with SF-268 CNS it was 3.73 µM; in the assay on RPMI-8226 leukemia, 2.37 µM; in the assay with SK-MEL-2 melanoma it was 10.6 µM. The TGI turned out to be 21 µM in the assay with PC-3 prostate; 3.14 µM in the assay with DU-145 prostate; 2.88 µM with OVCAR-3 ovarian; 55.9 µM in the assay with HS 578T breast; 3.65 µM with M14 melanoma; 20.2 µM in the assay on U251 CNS. In addition, the TGI in the assay on SK-MEL-5 melanoma came out at 3.24 µM; in the assay on SF-268 CNS, 14.6 µM; in the assay on RPMI-8226 leukemia, 6.25 µM; in the assay on SK-MEL-2 melanoma it was 24.7 µM.

With `COC(=O)C1(C)CCC(c2ccc(C)cc2)=C(CC(=O)O)C1` (stereo not given), the TGI in the assay on PC-3 prostate, with DU-145 prostate, with OVCAR-3 ovarian, with HS 578T breast, in the assay on M14 melanoma and in the assay with U251 CNS was > 100 µM in each case. Moreover, the TGI in the assay with SK-MEL-5 melanoma, with SF-268 CNS, in the assay with RPMI-8226 leukemia and in the assay on SK-MEL-2 melanoma was > 100 µM in each case.

Turning to `Fc1ccc2c(c1)C1=NN(c3ccccc3)C(F)C1CO2` (stereo not given), the GI50 in the assay on PC-3 prostate was 11.1 µM; in the assay on DU-145 prostate it was 5.18 µM; in the assay on OVCAR-3 ovarian, 6.14 µM; with HS 578T breast, 10.6 µM; with M14 melanoma, 8.16 µM; in the assay on U251 CNS, 7.29 µM. The GI50 with SK-MEL-5 melanoma is 8.48 µM; in the assay on SF-268 CNS, 7.52 µM; in the assay with RPMI-8226 leukemia, 9.04 µM; in the assay on SK-MEL-2 melanoma, 19.4 µM. For the same compound, the TGI with PC-3 prostate was > 50 µM; in the assay on DU-145 prostate it was 21.8 µM; with OVCAR-3 ovarian, 19.1 µM; in the assay with HS 578T breast, 28.1 µM; with M14 melanoma it was 18.6 µM; in the assay with U251 CNS it was 15.3 µM. The TGI in the assay on SK-MEL-5 melanoma was 16.2 µM; in the assay with SF-268 CNS it was 23.2 µM; in the assay with RPMI-8226 leukemia, 33.4 µM; in the assay with SK-MEL-2 melanoma, > 50 µM.

For the compound `C[C@H]1[C@H](C)CC[C@]2(CO)CC[C@]3(C)C(=CC[C@@H]4[C@@]5(C)CCCNC(C)(C)[C@@H]5CC[C@]43C)[C@H]12`, the GI50 with PC-3 prostate is 1.55 µM; with DU-145 prostate it was 1.72 µM; with OVCAR-3 ovarian it was 1.83 µM; in the assay on HS 578T breast, 2.05 µM; with M14 melanoma, 1.61 µM; in the assay with U251 CNS, 1.67 µM. Moreover, the GI50 in the assay on SK-MEL-5 melanoma was 1.7 µM; with SF-268 CNS, 1.79 µM; in the assay on RPMI-8226 leukemia it was 1.85 µM; in the assay on SK-MEL-2 melanoma, 1.9 µM. Also, the TGI in the assay with PC-3 prostate was found to be 2.96 µM; with DU-145 prostate, 3.14 µM; in the assay on OVCAR-3 ovarian it was 3.42 µM; in the assay on HS 578T breast, 4.86 µM; in the assay with M14 melanoma it was 3.12 µM; with U251 CNS, 3.15 µM. The TGI in the assay with SK-MEL-5 melanoma came to 3.09 µM; with SF-268 CNS it was 3.5 µM; in the assay on RPMI-8226 leukemia, 4.14 µM; in the assay on SK-MEL-2 melanoma it was 3.63 µM.
